{"source": "paper PMC8456950", "about": "“Structure‐Guided Design of G‐Protein‐Coupled Receptor Polypharmacology” (Angewandte Chemie (International Ed. in English), 2021)", "key": {"[1]": {"system": "unilaterally 6-OHDA lesioned rats", "test": "Rotation test in unilaterally 6-OHDA lesioned rats (model of Parkinsonism)", "type": "in vivo", "method": "Evaluation of compound 30 in rodent model of Parkinsonism. Male Sprague Dawley rats (150-200 g) were housed in air-conditioned rooms (12h dark/light cycle) at 20°C and a humidity of 53%. Experiments were performed in agreement with the European Communities Council Directive of 24 November 1986 (86/609/EEC) on the ethical use of animals and were approved by the local ethical committee (Stockholm North Ethical Committee, N105/16). Rats were anesthetized with ketamine (100 mg/kg, IP; Intervet)/xylazine (5 mg/kg, IP; Bayer, Kiel, Germany), pretreated with desipramine (25 mg/kg, IP; Sigma, St Louis, MO, USA)/pargyline (5 mg/kg, IP; Sigma), placed in a stereotaxi c instrument and injected with 6-OHDA (2.5 µl of a 5mg/ml solution; Sigma) into the median forebrain bundle (MFB) of the right hemisphere (AP -2.8 mm, ML -2.0 mm and V -9.0 mm). Two weeks after the unilateral 6-OHDA lesion, rats were injected with apomorphine (1 mg/kg, IP; Sigma) and their contralateral rotations were measured to determine the degree of nigrostriatal denervation. Four weeks after surgery, rats that were divided into two group according to the number of apomorphine-induced rotations. The rats were treated either with DMSO(17%)/saline (n=6) or compound 30 (n=7, 24 mg/kg, IP) dissolved in DMSO(17%)/saline. The number of rotations was calculated automatically with Noldus EthoVision XT11. 5 Software for 30 min following the drug administration. The two […]\ngroups were then compared by using a Mann-Whitney test. A second set of independent experiments using a new set of rats were carried out using the same protocol to assess the involvement of the D2R in the observed effect. In this case, rats were divided into four groups according to the number of apomorphine-induced rotations. The rats were treated with either DMSO(17%)/saline (n=6), raclopride (n=7, 2mg/kg, IP) dissolved in DMSO(17%)/saline, compound 30 (n=7, 24 mg/kg, IP) dissolved in DMSO(17%)/saline or the combination of raclopride (30 min pretreatment) and compound 30 (n=7). The rotation test was then performed for 30 min. […]"}, "Caco-2 cell permeability": {"test": "Caco-2 cell permeability", "type": "in vitro ADME", "details": "human, Caco-2 monolayer", "method": "forskolin (Sigma 17018) was added and incubated for 5 min at 37 °C with gentle stirring (150 rpm). Reagents (#CISBIO 62AM4PEC) were added and, after incubation for 60 min at rt with gentle stirring (90 rpm) and protected from light, homogeneous time resolved fluorescence (HTRF, λEx: 320 nm; λEm: 620-665 nm) from each well was measured using a Tecan Infinite M1000 Pro. Data were normalized to the maximum effect of dopamine. EC50 and Ema x values were obtained after fitting the d ata to a four -parameter logistic equatio n using Prism V2. 1 (Graph Pad Inc, Chicago, USA) .\nCell permeability. The Caco-2 cell permeability of compound 30 was determined by the Uppsala university optimization and pharmaceutical profiling platform (UDOPP) as described previously26. Briefly, Caco-2 cell monolayers (passage 94-105) were grown on a permeable filter support and used on day 21 after seeding. Prior to the experiment a 10 µM solution of 30 was prepared by dilution of a 10 mM stock solution in DMSO with Hank’ s balanced salt solution (HBSS; 7.4) and warmed to 37 ° C. The Caco-2 filters were washed with pre-warmed HBSS prior to the experiment, and the solution of 30 was thereafter applied on the apical or basolateral side of the monolayer. Permeability was determined at 37 ° C and at pH 7.4 in both the apical and basolateral chamber, with a stirring rate of 500 rpm. […]"}}, "note": "Entries after “also recorded” stand apart in the source; their conditions may differ.", "data": [{"smiles": "CCCN(CCCCC(=O)Nc1nc2c(OC)ccc(OC)c2s1)C1Cc2ccccc2C1", "note": "[Compound 30]", "values": [{"measurement": "contralateral rotations (net rotations, 30 min) versus control group", "setting": "[1]; 24 mg kg^−1 IP, 6-OHDA lesioned rats, p<0.01 first set, p<0.05 independent second set", "value": "significantly higher number of contralateral rotations; also recorded: significant increase of contralateral rotations"}, {"measurement": "effect on contralateral rotations in combination with D2 antagonist raclopride", "setting": "[1]; 30 at 24 mg kg^−1 IP with raclopride 2 mg kg^−1 IP (30 min pretreatment)", "value": "reversed"}, {"measurement": "Papp A→B at 60 min, 10 µM", "setting": "Caco-2 cell permeability; 10 µM, pH 7.4, 37 °C, apical to basolateral", "value": 3.8, "unit": "×10⁻⁶ cm/s"}, {"measurement": "efflux ratio at 60 min, 10 µM", "setting": "Caco-2 cell permeability; pH 7.4, read-out: efflux ratio (ER)", "value": 8}]}]}
